In patent US12516034B2, “Process for preparing high-density quercetin” (TRADICHEM INDUSTRIAL SERVICES, S.L., priority 2022, dated 2026):

Legend:
Assay type in all cases: physicochemical
[1] = Bulk density (PT-SV100 Scott Volumeter); details: after roller compaction vs starting non-compacted quercetin
Excerpt: The bulk density, also called apparent density, can be defined as the ratio of the mass to the volume of an untapped powder sample, as “poured”. The bulk density is given in grams per millilitre (g/ml) and is typically calculated by “pouring” a known mass of powder into a graduated cylinder. Bulk density and tapped density can be measured according to the method disclosed in the European Pharmacopoeia section 2.9.34 (Bulk density and tapped density of powders), for example, the bulk density may be measured using the PT-SV100 Scott Volumeter and the tapped density may be measured using the PT-TD200 Tap Density Tester (Pharma Test Apparatebau AG, Germany). The bulk density was measured using a PT-SV100 Scott Volumeter (Pharma Test) and the tapped density was measured using a PT-TD200 Tap Density Tester (Pharma Test).

[2] = Tapped density (PT-TD200 Tap Density Tester); details: after mechanical tapping
Procedure: On the other hand, tapped density, also called compacted density, of a powder is the ratio of the mass of the powder to the volume occupied by the powder after it has been tapped for a defined period of time. Tapped density is measured by first gently introducing a known sample mass into a graduated cylinder and carefully levelling the powder without compacting it. The cylinder is then mechanically tapped by raising the cylinder and allowing it to drop under its own weight using a suitable mechanical tapped density tester that provides a suitable fixed drop distance and nominal drop rate Bulk density and tapped density can be measured according to the method disclosed in the European Pharmacopoeia section 2.9.34 (Bulk density and tapped density of powders), for example, the bulk density may be measured using the PT-SV100 Scott Volumeter and the tapped density may be measured using the PT-TD200 Tap Density Tester (Pharma Test Apparatebau AG, Germany). The bulk density was measured using a PT-SV100 Scott Volumeter (Pharma Test) and the tapped density was measured using a PT-TD200 Tap Density Tester (Pharma Test).

[3] = Carr index (compressibility index), powder flowability; details: for Compressibility (Carr Index): calculated from bulk and tapped density; for Flowability (type of flow according to Table 1): classification by Carr index / Hausner ratio
Procedure: The Carr index, also called Carr's index or compressibility index, is calculated according to the following formula: Free flowing powders have smaller values of the Carr index than poor flowing powders. In general, a Carr index greater than 25 is considered to be an indication of poor flowability, and below 15, of good flowability. The relationship between Carr index and/or Hausner ratio with powder flowability is well recognized in the art, for example, as disclosed by M. E. Aulton, in “Powder flow”, chapter 12 of the well-recognized reference book in pharmaceutical technology “Aulton's Pharmaceutics. The design and manufacture of medicines”, Fifth Edition 2018, M. E. Aulton and K. M. G. Taylor, Editors, Elsevier Ltd, as summarized in Table 1: Carr index was calculated from the bulk and tapped density measured values, using the following formula: […]

[4] = Hausner ratio, powder flowability; details: calculated from bulk and tapped density
Procedure: Hausner ratio is also predictive of powder flow, and is calculated according to the following formula: In this case, a Hausner ratio greater than 1.34 is generally considered to be an indication of poor flowability. The relationship between Carr index and/or Hausner ratio with powder flowability is well recognized in the art, for example, as disclosed by M. E. Aulton, in “Powder flow”, chapter 12 of the well-recognized reference book in pharmaceutical technology “Aulton's Pharmaceutics. The design and manufacture of medicines”, Fifth Edition 2018, M. E. Aulton and K. M. G. Taylor, Editors, Elsevier Ltd, as summarized in Table 1: Hausner ratio was also calculated using bulk and tapped density values, according to the following formula: […]

Angle of repose = details: tan^-1 (height/radius) of cone after pouring
Excerpt: The “angle of repose” is another parameter for indirectly quantifying powder flowability. It is the angle at which a material will rest on a stationary heap, specifically, is the angle formed by the heap slope and the horizontal plane. It may be calculated by different methods, commonly, just pouring the material on a flat surface. It also can be calculated as “drained angle of repose”, as the angle measured on the internal conical face of a material which has been formed when drained from an orifice of a flat-bottomed container to the horizontal. A dynamic angle of repose can also be used, which is the angle to the horizontal of the free surface formed in a relatively slowly rotating drum (Aulton, op. cit., pg. 197). In this case, the lower the value of the angle of repose, the higher the flowability of the material. It is generally considered that an angle of repose higher than 45 correlates with poor flowability, whereas an angle of repose under 30 correlates with excellent flowability. The angle of repose was determined by measuring the radius and the height of the cone formed after pouring the powder, using the formula tan^−1 (height/radius).

[5] = Solubility compared to non-compacted quercetin; details: compared to standard
Excerpt: It is advantageous, as the poor solubility of quercetin is one of the drawbacks of this substance, as it impairs its biological availability and, consequently, its therapeutic activity.

| SMILES | Increase of bulk density [1] | Tapped density [2] [g/mL] | Compressibility (Carr Index) [3] | Flowability (type of flow according to Table 1) [3] | Hausner ratio [4] | Angle of repose (Angle of repose) | Solubility [5] |
| --- | --- | --- | --- | --- | --- | --- | --- |
| O=c1c(O)c(-c2ccc(O)c(O)c2)oc2cc(O)cc(O)c12 [Compacted quercetin, 3,3′,4′,5,7-pentahydroxyflavone] | about 200% | 0.71 | 8.45 | excellent | 1.09 | 25-30° | improved |
| O=c1c(O)c(-c2ccc(O)c(O)c2)oc2cc(O)cc(O)c12 [Non-compacted quercetin, 3,3′,4′,5,7-pentahydroxyflavone, reference compound] | – | 0.44 | 52.27 | very, very poor | 2.10 | >45° | – |
